Assay results: patent publication US7498292B2, “Combinatorial libraries of autoinducer analogs, autoinducer agonists and antagonists, and methods of use thereof” (The Research Foundation of State University of New York, priority 2002, dated 2009)

Assays:
Elastase B [1] = assay: elastase (Elastin Congo Red) assay, strain PAO-JP2; assay type: cell-based, P. aeruginosa PAO-JP2; conditions: PAO-JP2, 50 μM compound, 5 μM AI1 and 10 μM AI2
Description: (§1) Pyocyanin, elastase, and biofilm were assayed as previously described (Smith et al., Chem. Biol. 10:81-89 (2003), which is hereby incorporated by reference in its entirety). Elastase activity produced by P. aeruginosa in the presence of AIs and competing 3-oxo-C12-D10 was determined by measuring breakdown of the substrate Elastin Congo Red.
(§2) For the elastase B assay, cells (PAO-JP2) were grown overnight in PTSB media (5% Peptone, 0.1% Tryptic Soy Broth) at 37° C., washed and diluted to an OD600 of 0.05, grown to mid-log phase, washed again, and re-suspended to an OD600 of 0.05. The culture was then added to test tubes containing test compound(s) and grown for 6 hours. Elastase B activity was quantified by incubation of 100 μl of filtered culture supernatant with 5 mg Elastin Congo Red substrate and 1 ml of 10 mM Tris pH 7.2, 1 mM CaCl2 for 6 hours at 37° C. with agitation. Elastase B activity is represented by the OD495 of the enzyme assay following reaction quenching with EDTA and centrifugation to remove unreacted substrate, divided by the OD600 of the cell culture. The same assay was run with strain PAO-1, however no exogenous autoinducers were added.

Elastase B [2] = assay: elastase (Elastin Congo Red) assay, wild type strain PAO1; assay type: cell-based, P. aeruginosa PAO1; conditions: wild type PAO1, 100 μM compound
Description: as §1, §2

[3] = test system: PAO-JP2 (pTdK-GFP) biofilm; assay: static biofilm assay, PAO-JP2 (pTdK-GFP); assay type: cell-based, P. aeruginosa; conditions: PAO-JP2 (pTdK-GFP) with exogenous AIs, 24-hour static assay
Description: Compound 3 was tested for its effect on biofilm development in a 24-hour assay that looks at the early stages of biofilm formation. […] Cultures were grown at 37° C. with shaking for 30 minutes, and then allowed to sit at 37° C. for an additional 23.5 hours. Coverslips were then rinsed and placed on slides for visualization using an MRC1024 Laser Scanning Microscope (BioRad) with a Nikon Fluor-60X oil emersion objective lens (NA=1.4), 488 nm Argon Laser and OG515 filter.

P. aeruginosa = assay: cell growth in the reporter assay; assay type: cell-based; conditions: concentrations up to 400 μM
Description: Based on the above hypothesis, a competition assay of 2 and 3 against AI1, using strain PAO-JP2 (plasI-LVAgfp), was performed. […] It should be noted that this inhibition experiment was performed with competition against 1 μM AI1, a concentration typically produced by wild type P. aeruginosa (Pearson et al., Proc. Natl Acad. Sci. USA 92:1490-1494 (1995), which is hereby incorporated by reference in its entirety). […] It should also be noted that cell growth was not affected by the addition of 2 or 3 at concentrations up to 400 μM. Thus, it appears that compounds 2 and 3 act as specific inhibitors of QS controlled promoters. Compound 6 was also tested for its ability to compete against AI2, but no inhibition of the rhlI-gfp reporter gene was seen.

`CCCCCCCCCC(=O)CC(=O)NC1CCCCC1=O` (racemic) [Compound 3, N-(2-oxocyclohexyl)-3-oxododecanamide] was tested, and the “elastase activity, % of the positive control level” value (Elastase B [1]) was 60%, the “elastase activity, % of the control level” value (Elastase B [2]) was 30% and the “effect on biofilm formation” value [3] was “completely inhibited”. The “effect on cell growth” value (P. aeruginosa) was “not affected”.
